The conditions of series [1]: for remaining percentage (residual % content) in NE: 672 h; for content in CS-OA NE used for cellular and in vivo studies / loading in NE: CS-OA NE; for final concentration in NE: loaded in CS-OA NE, immediately after preparation, four batches. The protocol: The eugenol and Fer-Me quantification was performed using an HPLC apparatus, coupled with a UV-Vis Variable Wavelength Detector equipped with a deuterium lamp with a wavelength accuracy of ±1 nm (Agilent 1100 Series, model G1314A, Santa Clara, CA, USA). The mobile phase was constituted by a mixture of CH3CN and H2O 38:62 (v/v) acidified with formic acid at pH 3.25, the flow rate was maintained at 1 mL/min, and separations were performed at room temperature on a 150 mm × 4.6 mm, […]. SUPELCOSIL^TM LC-18 endcapped silica column (Supelco®, Merck, Milan, Italy). Eugenol was detected at a wavelength of 210 nm, while Fer-Me was detected at 320 nm. The injection volume was 20 µL for each sample. […] An ANOVA was performed to assess the feasibility of averaging the peak area values across three calibration curves for both the analytes. […] Both standard curve and NE samples were injected after dilution in a mixture of mobile phase and acetate buffer (5 mM); every analysis on each sample was done in triplicate.
The yield of the process was verified by quantifying by HPLC analysis Fer-Me and eugenol loaded into the CS-OA NEs immediately after preparation and after 1, 2, and 4 weeks of storage at 4 °C. […] Fer-Me and eugenol were quantified by the HPLC method into the external aqueous phase, passing through the membrane as permeate.

Series [2] can be described thus: In vitro drug release from CS-OA NE (dialysis tubing). The note with it: PBS pH 6.2, 32 °C. It is filed as physicochemical. The protocol:
The membrane was immersed in 50 mL of PBS (pH 6.2) at 32 ± 2 °C. The release medium was kept under constant magnetic stirring. Aliquots (1 mL) were withdrawn at predetermined intervals ranging from 15 min to 4 h and replaced with an equal volume of fresh PBS. The Fer-Me and eugenol released were quantified using the HPLC method.

A short description of series [3]: in vivo. The note with it: rat; for AUC / Cmax / Tmax: nasal CS-OA NE, Fer-Me 0.4 mg/kg and eugenol 0.8 mg/kg. The protocol: Fer-Me and eugenol were nasally co-administered as loaded in CS-OA NE to evaluate their concentration–time profiles in male Sprague-Dawley rats’ (200–250 g body weight; Charles River laboratories, Calco, Italy) bloodstream and CSF. The results were compared with those obtained by the rat intravenous administrations of Fer-Me (10 mg/kg; present study), and 20 mg/kg of eugenol. The sample size (4 rats/group) has been chosen based on our previous studies. The experimental procedures were approved by the Italian Ministry of Health and were performed in accordance with the European Communities Council Directive of September 2010 (2010/63/EU). According to the ARRIVE guidelines, all possible efforts were made to minimize animal pain and discomfort and to reduce the number of experimental subjects.
Fer-Me and eugenol were nasally co-administered to rats at the doses of 0.4 mg/kg (about 0.1 mg/rat) and 0.8 mg/kg (about 0.2 mg/rat), respectively, as encapsulated in CS-OA NE (Fer-Me content about 1 mg/mL; eugenol content about 2 mg/mL). A group of four rats anesthetized and laid on their backs (weighing approximately 250 g) received CS-OA NE after being fasted for 12 h. In particular, each rat received 50 μL of CS-OA NE formulation in each nostril. The nasal administration was carried out using a semiautomatic pipette connected to a short polyethylene tubing, which was inserted about 0.6 to 0.7 cm into each nostril. Following the administration, blood samples (100 μL) were collected at predetermined time points, along with CSF samples (30 μL). The blood samples (n = 4 for timepoint) were immediately mixed with 200 μL of ice-cold CH3CN and then 100 μL of internal standard (100 μM BNZ in CH3CN) was added. These samples were centrifuged at 12,500× g for 5 min. About 300 μL of the supernatant was then withdrawn and centrifuged again. Finally, 10 μL of the resultant sample was analyzed using HPLC for the quantification of Fer-Me and eugenol.
The HPLC apparatus was the same used for the uptake experiments with RPMI 2650 cells (Section 2.3.3). […] Calibration curves of peak areas versus concentration in the range 0.5 to 10 μM for Fer-Me (0.10 to 2.08 μg/mL), and eugenol (0.08 to 1.64 μg/mL), obtained dissolving the compounds in simulated CSF, were linear (n = 8, r ≥ 0.996, p < 0.0001). […] Therefore, the concentrations of these compounds determined in whole blood were referred to as the peak area ratio with respect to the internal standard BNZ. Eight different concentrations in rat whole blood at 4 °C, ranging from 0.5 to 50 μM for Fer-Me (0.10 to 10.41 μg/mL) and eugenol (0.08 to 8.21 μg/mL) were used to generate calibration curves in this biological system, which were linear (n = 8, r ≥ 0.990, p < 0.001).
Fer-Me in vivo half-life (t1/2) in the rats’ bloodstream was determined using nonlinear regression (exponential decay) of concentration values quantified at appropriate time intervals after infusion, further validated by applying linear regression to the semi-logarithmic plot. The area under the concentration–time curves (AUC, μg∙mL^−1∙min) in rat bloodstreams or CSF, following Fer-Me intravenous administration or CA-OA NE nasal administration, were calculated using the trapezoidal method.
Following the nasal administration of CS-OA NE, the absolute bioavailability (F) values of Fer-Me and eugenol were calculated as the ratio of the nasal AUC to the intravenous AUC values measured in the bloodstream, normalized to the respective doses, according to Equation (3):(3) F=AUCnasal/AUCIV·doseIV/dosenasal GraphPad Prism version 7.0 (GraphPad Software, San Diego, CA, USA) was used for all calculations.

Where two headings read alike, the source gives them in different places.

Turning to `C=CCc1ccc(O)c(OC)c1` [eugenol], in series [1], the “remaining percentage (residual % content) in NE” value was “about 71%”; the “content in CS-OA NE used for cellular and in vivo studies” value is given as ~12 mM; the “loading in NE” value is on record as ~2 mg/mL; the “final concentration in NE” value is on record as 260.0 ± 0.5 µg per 100 µL of NE. Besides, the “in vitro release from CS-OA NE” value in series [2] (30 min) turned out to be 25.2%. Besides, in series [2] (240 min), the “in vitro release from CS-OA NE” value turned out to be 97.5%. Further, in series [3] (male, Sprague-Dawley, 0.8 mg/kg, nasal CS-OA NE vs intravenous, dose-normalized, read-out: absolute bioavailability F (bloodstream)), the bioavailability (in general, the share of a dose that reaches the circulation, judged against a reference dose that is usually intravenous) was 95%. In series [3] (male, Sprague-Dawley), the “time at which CSF concentration decreased to zero (permanence in the CSF)” value was determined as 120 min and the “time within which plasma concentration decreased to zero” value is ≤ 90 min. The AUC (commonly the area under the concentration-time curve, a measure of exposure) in series [3] (male, Sprague-Dawley, inhaled or intranasal, 0.8 mg/kg, read-out: AUC in CSF (converted)) is 1060 ng·h/mL. The AUC in series [3] (male, Sprague-Dawley, inhaled or intranasal, 0.8 mg/kg, read-out: AUC in the bloodstream (converted)) was 111 ng·h/mL. The maximum concentration (Cmax) (as a rule, the highest concentration seen after dosing) in series [3] (male, Sprague-Dawley, inhaled or intranasal, 0.8 mg/kg, read-out: Cmax in CSF) was 1050 ± 80 ng/mL. In addition, the Cmax in series [3] (male, Sprague-Dawley, inhaled or intranasal, 0.8 mg/kg, read-out: Cmax in the bloodstream) was found to be 150 ± 10 ng/mL. Moreover, the Tmax (usually the time from dosing to the highest level) in series [3] (male, Sprague-Dawley, inhaled or intranasal, 0.8 mg/kg, read-out: Tmax in CSF (converted)) was 20 min. In series [3] (male, Sprague-Dawley, inhaled or intranasal, 0.8 mg/kg, read-out: Tmax in the bloodstream (converted)), the time of peak concentration (Tmax) is 40 min.

With `COC(=O)/C=C/c1ccc(O)c(OC)c1` [Fer-Me, methyl ferulate], in series [1], the “remaining percentage (residual % content) in NE” value is “about 81%”; the “content in CS-OA NE used for cellular and in vivo studies” value is reported as “about 5 mM”; the “loading in NE” value is “about 1 mg/mL”; the “final concentration in NE” value is on record as 123.0 ± 0.2 µg per 100 µL of NE. Further, the “in vitro release from CS-OA NE” value in series [2] (30 min) was found to be 24.9%. In addition, the “in vitro release from CS-OA NE” value in series [2] (240 min) was 96.9%. Besides, in series [3], the “CSF bioavailability (AUC) after nasal CS-OA NE relative to intravenous administration” value is “about 30 times”, the “absolute bioavailability F (bloodstream)” value was determined as 56%, the “time at which CSF concentration decreased to zero (permanence in the CSF)” value amounted to 120 min and the “time within which plasma concentration decreased to zero” value is on record as ≤ 90 min. In addition, in series [3] (inhaled or intranasal), the “Tmax in CSF” value was 20 min and the “Tmax in the bloodstream” value amounted to 40 min.

Values taken from publication PMC11945475, “Nasal Administration of a Nanoemulsion Based on Methyl Ferulate and Eugenol Encapsulated in Chitosan Oleate: Uptake Studies in the Central Nervous System” (Pharmaceutics, 2025).
